{
  "source": "patent US20250057848A1",
  "about": "“GAL475 COMPOSITIONS AND METHODS OF USE THEREOF” (NEURIM PHARMACEUTICALS (1991) LTD., priority 2023, published 2025)",
  "key": {"[1]": {"assay": "28 day repeated oral dose with 14-day recovery in Beagle dogs (body weight gain, food consumption)", "type": "in vivo, Beagle dog", "details": "for decrease in food consumption / decrease in body weight gain: 7.5, 15, or 30 mg/kg/day oral; for decrease in food consumption: dosing phase; for decrease in body weight gain: dosing phase up to 28 days", "procedure": "Thirty-two (16/sex) dogs were randomly assigned to 4 groups and orally administered vehicle (2% (w/v) CMC-Na, 1% (v/v) Tween 80 in 0.1 M phosphate buffer at pH 7.4) or Gal-475*2HCl at 7.5, 15, or 30 mg/kg/day once daily for up to 28 days."}, "5-HT7 (h)": {"target": "5-HT7 (h) (Homo sapiens (Human), UniProt P34969)", "sequence (P34969 whole entry, the tested form may be a part)": "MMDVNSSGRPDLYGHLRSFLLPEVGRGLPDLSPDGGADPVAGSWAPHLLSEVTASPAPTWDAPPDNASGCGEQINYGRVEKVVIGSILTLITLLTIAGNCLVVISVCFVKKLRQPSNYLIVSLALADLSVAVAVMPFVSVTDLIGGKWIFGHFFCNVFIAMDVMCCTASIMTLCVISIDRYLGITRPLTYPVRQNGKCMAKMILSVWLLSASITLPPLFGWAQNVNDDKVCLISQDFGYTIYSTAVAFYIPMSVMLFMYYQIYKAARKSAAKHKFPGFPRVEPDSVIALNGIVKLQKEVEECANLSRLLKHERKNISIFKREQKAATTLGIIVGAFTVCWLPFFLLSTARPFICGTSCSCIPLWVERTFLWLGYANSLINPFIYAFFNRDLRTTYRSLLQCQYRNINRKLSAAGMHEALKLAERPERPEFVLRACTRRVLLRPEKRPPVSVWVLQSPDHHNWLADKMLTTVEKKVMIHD", "assay": "Receptor binding assay, % inhibition of radioligand binding, 5-HT7 (h)", "details": "30 micromolar GAL475; agonist radioligand; read-out: % inhibition of the binding of radioactively labelled ligand", "procedure": "(§1) GAL475 (30 micromolar) was tested in multiple receptor binding assays. The binding was calculated as a % inhibition of the binding of a radioactively labelled ligand specific for each target.\n(§2) However, the potency of GAL 475 at these receptors was lower than 1 micromolar and therefore not considered to be pharmacologically interesting. […] GAL475 was subsequently tested for PAM activity at the human NTS1 (FAST-0330I) and NTS2 (FAST-0331I) receptors, at 100-50,000 nanomolar concentrations. Agonist activity of GAL475 is expressed as a percentage of the activity of the reference agonist (Neurotensin) at its EC100 (maximal response) concentration. Antagonist activity of GAL475 is expressed as a percentage of the inhibition of reference agonist activity at its EC80 […] concentration. The assays were conducted with recombinant cell lines."}, "human NTS1": {"target": "human NTS1 (Homo sapiens (Human), UniProt P30989)", "sequence (P30989 whole entry, the tested form may be a part)": "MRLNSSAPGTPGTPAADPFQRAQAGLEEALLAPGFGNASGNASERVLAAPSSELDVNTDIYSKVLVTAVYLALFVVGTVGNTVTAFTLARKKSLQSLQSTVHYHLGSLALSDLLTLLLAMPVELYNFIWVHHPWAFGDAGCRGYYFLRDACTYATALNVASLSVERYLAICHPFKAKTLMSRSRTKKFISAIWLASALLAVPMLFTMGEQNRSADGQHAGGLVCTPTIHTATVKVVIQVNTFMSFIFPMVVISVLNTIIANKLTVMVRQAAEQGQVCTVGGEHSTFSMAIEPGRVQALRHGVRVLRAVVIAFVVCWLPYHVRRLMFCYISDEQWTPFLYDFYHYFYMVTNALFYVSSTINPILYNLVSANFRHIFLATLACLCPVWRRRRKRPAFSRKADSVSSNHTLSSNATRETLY", "assay": "Positive allosteric modulator (PAM) activity at human NTS1 (FAST-0330I), recombinant CHO-K1-mt aequorin cells", "type": "cell-based", "details": "100-50,000 nM", "description": "as §2\n(§3) GAL475 (100-50,000 nM) was tested for positive allosteric modulator (PAM) activity at the human NTS1 (FAST-0330I) and NTS2 (FAST-0331I) receptors (Tables 2 and 3)."}, "[2]": {"tested_on": "al adrenoreceptor (non-selective)", "assay": "Receptor binding assay, % inhibition of radioligand binding, al adrenoreceptor (non-selective)", "details": "30 micromolar GAL475; antagonist radioligand", "procedure": "as §1, §2"}, "[3]": {"assay": "28 days repeated oral dose with 14-days recovery in rats (body weight, food consumption, tolerability)", "type": "in vivo, rat", "details": "for overall body weight gain Day −1 to Day 28 compared to that of the controls: 80 mg/kg/day oral; for group mean body weight compared to the controls: >40 mg/kg/day oral, end of dosing phase (28 days)", "procedure": "One hundred and forty-two (71/sex) rats were randomly assigned to 4 groups and given vehicle [2% (w/v) CMC-Na, 1% (v/v) Tween 80 in 0.1 M phosphate buffer at pH 7.4±0.2] or Gal-475*2HCl at 20, 40 or 80 mg/kg/day once daily for 28 days by the oral gavage route."}, "human NTS2": {"target": "human NTS2 (Homo sapiens (Human), UniProt O95665)", "sequence (O95665 whole entry)": "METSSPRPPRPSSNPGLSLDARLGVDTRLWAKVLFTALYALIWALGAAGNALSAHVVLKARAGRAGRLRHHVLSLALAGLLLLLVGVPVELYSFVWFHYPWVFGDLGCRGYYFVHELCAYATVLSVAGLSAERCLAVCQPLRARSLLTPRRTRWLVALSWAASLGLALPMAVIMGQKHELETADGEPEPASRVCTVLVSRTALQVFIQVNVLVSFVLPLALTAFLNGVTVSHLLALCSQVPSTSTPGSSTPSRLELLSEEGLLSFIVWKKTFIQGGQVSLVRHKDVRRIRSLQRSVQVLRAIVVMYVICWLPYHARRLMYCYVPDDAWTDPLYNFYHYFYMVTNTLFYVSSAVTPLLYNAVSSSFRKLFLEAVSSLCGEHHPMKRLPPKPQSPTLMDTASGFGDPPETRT", "assay": "Positive allosteric modulator (PAM) activity at human NTS2 (FAST-0331I), recombinant CHO-K1-mt aequorin cells", "type": "cell-based", "details": "100-50,000 nM", "description": "as §2, §3"}, "5-HT5a(h)": {"target": "5-HT5a(h) (Homo sapiens (Human), UniProt P47898)", "sequence (P47898 whole entry, the tested form may be a part)": "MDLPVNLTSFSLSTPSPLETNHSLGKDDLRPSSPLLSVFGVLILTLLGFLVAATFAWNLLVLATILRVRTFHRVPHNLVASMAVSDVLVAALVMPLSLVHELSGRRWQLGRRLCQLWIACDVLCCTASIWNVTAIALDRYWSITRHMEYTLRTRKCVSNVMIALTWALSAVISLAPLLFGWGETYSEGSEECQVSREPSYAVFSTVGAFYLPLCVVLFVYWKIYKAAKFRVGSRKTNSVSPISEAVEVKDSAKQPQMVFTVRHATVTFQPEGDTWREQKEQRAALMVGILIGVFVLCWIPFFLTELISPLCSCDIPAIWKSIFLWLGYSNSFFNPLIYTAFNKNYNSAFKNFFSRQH", "assay": "Receptor binding assay, % inhibition of radioligand binding, 5-HT5a(h)", "details": "30 micromolar GAL475; agonist radioligand; read-out: % inhibition of the binding of radioactively labelled ligand", "procedure": "as §1, §2"}, "Na+channel (site 2)": {"tested_on": "Na+channel (site 2)", "assay": "Receptor binding assay, % inhibition of radioligand binding, Na+channel (site 2)", "details": "30 micromolar GAL475; antagonist radioligand", "procedure": "as §1, §2"}, "5-HT2B(h)": {"target": "5-HT2B(h) (Homo sapiens (Human), UniProt P41595)", "sequence (P41595 whole entry, the tested form may be a part)": "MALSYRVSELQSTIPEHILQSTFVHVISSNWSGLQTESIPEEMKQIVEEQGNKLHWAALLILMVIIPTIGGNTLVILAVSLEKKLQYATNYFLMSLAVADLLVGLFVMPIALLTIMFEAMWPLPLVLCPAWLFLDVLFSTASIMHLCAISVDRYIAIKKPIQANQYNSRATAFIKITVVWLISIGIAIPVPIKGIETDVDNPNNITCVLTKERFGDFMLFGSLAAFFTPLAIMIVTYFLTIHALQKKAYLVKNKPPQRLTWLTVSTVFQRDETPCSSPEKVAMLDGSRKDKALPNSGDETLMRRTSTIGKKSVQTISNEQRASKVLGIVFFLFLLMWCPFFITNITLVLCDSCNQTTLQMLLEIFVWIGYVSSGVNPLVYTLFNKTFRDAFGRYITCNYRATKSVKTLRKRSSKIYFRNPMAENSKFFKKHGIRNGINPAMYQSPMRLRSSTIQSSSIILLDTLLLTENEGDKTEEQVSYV", "assay": "Receptor binding assay, % inhibition of radioligand binding, 5-HT2B(h)", "details": "30 micromolar GAL475; agonist radioligand; read-out: % inhibition of the binding of radioactively labelled ligand", "procedure": "as §1, §2"}, "[4]": {"assay": "Phase 1 single escalating oral dose study in healthy male volunteers (body weight, tolerability)", "type": "in vivo, human", "procedure": "The effects of an oral dose of GAL-475 (capsules of 450 mg) in 12 healthy male volunteers was tested in a Phase 1, randomized, placebo-controlled, double-blind, first in man single escalating dose study.\nThe study drug (GAL475) at 50, 150, 450 mg dosages, or placebo were administered on the morning of Day 1. Subjects fasted for 8 hours prior to the intake of study drug or placebo and for at least 4 hours following dosing.\nThe subject's body weight was measured on day −1 and at the follow up visit (day 7) using a validated balance. Body weight was recorded with 1 decimal."}, "[5]": {"assay": "Acute gastric emptying (charcoal slurry) in rats", "type": "in vivo, Sprague-Dawley rat", "details": "3 mg/kg IV", "procedure": "Naive male Sprague-Dawley rats (239-297 g) were used to evaluate the effect on gastric emptying of a single dose of 3 mg/kg GAL-475 IV.\nRats were fasted 16-18 hours prior to the start of the experiment and then were given a bolus dose of either vehicle (1% tween-80 2% CMC) or GAL475 (3 mg/kg, IV) via the lateral tail vein. 5 minutes after dosing, rats were gavaged with a charcoal slurry (5 ml/kg, 10% charcoal in 2.5% Arabic gum from acacia tree) and then returned to their cages. 20 minutes after receiving the slurry, rats were euthanized using CO2. The stomachs were excised, weighed, emptied, washed and reweighed. Gastric content was calculated as the difference between full and empty weights. Increased gastric content was interpreted as a decrease in gastric emptying food retention)."}, "[6]": {"details": "oral gavage once daily 28 days, 20, 40, or 80 mg/kg/day"}, "[7]": {"details": "450 mg single oral dose, day −1 to day 7"}},
  "note": "pEC50: −log10 of the molar value.",
  "data": [
    {"smiles": "CCCNc1nc(NC)nc2c(NCC(C)(C)O)nc(NC)nc12.Cl.Cl", "note": "[Gal-475*2HCl, 1-(2,6-Bis-methylamino-8-propylamino-pyrimido[5,4-d]pyrimidin-4-ylamino)-2-methyl-propan-2-ol bis hydrochloride]", "values": [
      {"measurement": "decrease in food consumption", "setting": "[1]; females", "value": "≤ 98", "unit": "%"},
      {"measurement": "decrease in body weight gain", "setting": "[1]; females", "value": "≤ 29.9", "unit": "%"},
      {"measurement": "decrease in food consumption", "setting": "[1]; males", "value": "up to 81%"},
      {"measurement": "decrease in body weight gain", "setting": "[1]; males", "value": "up to 22.7%"},
      {"measurement": "body weight gain and food consumption during the recovery phase", "setting": "[1]; recovery phase", "value": "comparable with the control"}
    ]},
    {"smiles": "CCCNc1nc(NC)nc2c(NCC(C)(C)O)nc(NC)nc12", "note": "[GAL475, 1-(2,6-Bis-methylamino-8-propylamino-pyrimido[5,4-d]pyrimidin-4-ylamino)-2-methyl-propan-2-ol]", "values": [
      {"measurement": "inhibition at 30 µM", "setting": "5-HT7 (h)", "value": 79, "unit": "%"},
      {"measurement": "Hill Coefficient", "setting": "human NTS1", "value": 11.62},
      {"measurement": "% Activation Average at maximal concentration", "setting": "human NTS1; CHO-K1-mt aequorin", "value": 26.48, "unit": "%"},
      {"measurement": "pEC50", "setting": "human NTS1; CHO-K1-mt aequorin", "value": 6.45},
      {"measurement": "% inhibition of the binding of radioactively labelled ligand", "setting": "[2]", "value": 67.1, "unit": "%"},
      {"measurement": "decrease in body weight compared to vehicle", "setting": "[1]; 28 days", "value": 25, "unit": "%"},
      {"measurement": "food consumption compared to vehicle", "setting": "[1]; 28 days", "value": "dramatic decrease"},
      {"measurement": "weight loss compared to vehicle", "setting": "[3]; 40 mg/Kg body weight per day, 28 days", "value": "meaningful weight loss"},
      {"measurement": "body weight gain during recovery phase compared to controls", "setting": "[3]; 80 mg/kg/day, 2 weeks recovery phase", "value": "comparable or greater body weight gain"},
      {"measurement": "group mean food consumption compared with control group", "setting": "[3]; both sexes, >40 mg/kg/day, dosing phase", "value": "significant reduced"},
      {"measurement": "food intake at the end of recovery phase", "setting": "[3]; end of recovery phase", "value": "reversed"},
      {"measurement": "overall body weight gain Day −1 to Day 28 compared to that of the controls", "setting": "[3]; females", "value": 79, "unit": "%"},
      {"measurement": "group mean body weight compared to the controls", "setting": "[3]; females", "value": "−4.70", "unit": "%"},
      {"measurement": "overall body weight gain Day −1 to Day 28 compared to that of the controls", "setting": "[3]; males", "value": 71, "unit": "%"},
      {"measurement": "group mean body weight compared to the controls", "setting": "[3]; males", "value": "−7.35", "unit": "%"},
      {"measurement": "test article-related adverse effects in clinical signs, food consumption, clinical pathology, or pathology", "setting": "[3]; [6]", "value": "no test article-related adverse effects"},
      {"measurement": "tolerability", "setting": "[3]; [6]", "value": "well tolerated"},
      {"measurement": "% Activation Average at maximal concentration", "setting": "human NTS2", "value": 0.21, "unit": "%"},
      {"measurement": "inhibition at 30 µM", "setting": "5-HT5a(h)", "value": 50.6, "unit": "%"},
      {"measurement": "% inhibition of the binding of radioactively labelled ligand", "setting": "Na+channel (site 2)", "value": 75.1, "unit": "%"},
      {"measurement": "inhibition at 30 µM", "setting": "5-HT2B(h)", "value": 75, "unit": "%"},
      {"measurement": "subjects with mild headaches on the day of capsule intake", "setting": "[4]; 50 mg single oral dose", "value": "2 of the 6"},
      {"measurement": "subjects with mild headaches on the day of capsule intake", "setting": "[4]; 150 mg single oral dose", "value": "0 of the 6"},
      {"measurement": "subjects with mild headaches on the day of capsule intake", "setting": "[4]; 450 mg single oral dose", "value": "5 of the 6"},
      {"measurement": "change in body weight, average", "setting": "[4]; [7]", "value": -0.6, "unit": "kg"},
      {"measurement": "change in body weight, range", "setting": "[4]; [7]", "value": "−0.1 to −1.6", "unit": "kg"},
      {"measurement": "tolerability", "setting": "[4]; single oral dose 50, 150, 450 mg", "value": "well tolerated except for mild headaches"},
      {"measurement": "gastric emptying compared to vehicle", "setting": "[5]; p<0.05", "value": "significantly decreased"},
      {"measurement": "gastric content retention higher compared to vehicle controls", "setting": "[5]; up to 25 minutes after administration", "value": "up to 105%"}
    ]}
  ]
}
